Reference: US5621010A, “Urea derivatives and their use as ACAT inhibitors” (Nisshin Flour Milling Co., Ltd., priority 1993, dated 1997)

Tests used:
Human LDL = assay: Antioxidative activity: inhibition of MDA formation from LDL incubated with cupric sulfate; format: biochemical; conditions: compound 10^-5 M; cupric sulfate 5×10^-6 M; 5 hrs; compared with control
Description: Human LDL was incubated in the presence of cupric sulfate (5×10^-6 M) and in the presence or absence of a compound (10^-5 M) for 5 hrs. After the incubation, the peroxidation of low-density lipoproteins (LDL) is evaluated by the formation of malondialdehyde (MDA), which is a sort of lipid peroxides according to the method of Simon J. T. Mao et al. (J. Med. Chem., Vol. 34, pages 298-302, 1991). Activity of the compound is shown by percent inhibition of the MDA formation as compared with control.

[1] = test system: ACAT (liver microsome fractions of male rabbits); assay: ACAT inhibitory activity: formation of labelled cholesteryl esters from [1-14C]oleoyl-CoA and endogenous cholesterol; format: biochemical, rabbit; conditions: compound added at 10^-7 M
Description: The enzyme preparation, ACAT was prepared from liver microsme fractions of male rabbits according to the method of E. E. Largis et al. (Journal of Lipid Research, Vol. 30, pages 681-690, 1989). The activity was calculated by assaying the amount of the labelled cholesteryl esters formed from [1-^14 C]oleoyl-CoA and endogenous cholesterol according to the method of Kazuichi NATORI et al. (Japan J. Pharmacol., Vol. 42, pages 517-523, 1986).
The result is shown in Table 1, in which percent inhibition of the formation of the labelled cholesteryl esters with a compound added at 10^-7 M is indicated as index for the ACAT inhibitory activity.

Compound | Antioxidant Activity (percent inhibition of the MDA formation) (Human LDL) [%] | ACAT Inhibition [1] [%]
CC(C)(C)c1cc(CCc2ccccc2NC(=O)N2CCc3ccccc3C2)cc(C(C)(C)C)c1O [Example 117, 2-[N-[2-(3,5-di-tert-butyl-4-hydroxyphenethyl)phenyl]carbamoyl]-1,2,3,4-tetrahydroisoquinoline] | 97 | 91
CC(C)(C)c1cc(CCc2ccccc2NC(=O)N2CCN(Cc3ccccc3)CC2)cc(C(C)(C)C)c1O [Example 114, 1-Benzyl-4-[N-[2-(3,5-di-tert-butyl-4-hydroxyphenethyl)phenyl]carbamoyl]piperazine] | 98 | 82
CC(C)(C)c1cc(CCc2ccccc2NC(=O)NCC2(c3ccc4c(c3)OCO4)CCCC2)cc(C(C)(C)C)c1O [Example 76, N-[2-(3,5-di-tert-butyl-4-hydroxyphenethyl)phenyl]-N'-[[1-(3,4-methylenedioxyphenyl)cyclopentyl]methyl]urea] | 96 | 98
CC(C)(C)c1cc(CCc2ccccc2NC(=O)NC2CCCCC2)cc(C(C)(C)C)c1O [Example 17, N-[2-(3,5-di-tert-butyl-4-hydroxyphenethyl)phenyl]-N'-cyclohexylurea] | 99 | 92
CC(C)(C)c1cc(CCc2ccccc2NC(=O)NC(C)(C)c2ccc(Cl)c(Cl)c2)cc(C(C)(C)C)c1O [Example 74, N-[2-(3,5-di-tert-butyl-4-hydroxyphenethyl)phenyl]-N'-[2-(3,4-dichlorophenyl)-2-propyl]urea] | 95 | 96
CC(C)(C)c1cc(CCc2ccccc2NC(=O)NCC(c2ccccc2)c2ccccc2)cc(C(C)(C)C)c1O [Example 6, N-[2-(3,5-di-tert-butyl-4-hydroxyphenethyl)phenyl]-N'-(2,2-diphenylethyl)urea] | 98 | 99
CCSCCNC(=O)Nc1ccccc1CCc1cc(C(C)(C)C)c(O)c(C(C)(C)C)c1 [Example 38, N-[2-(3,5-di-tert-butyl-4-hydroxyphenethyl)phenyl]-N'-(2-ethylthioethyl)urea] | 94 | 71
CCOC(=O)[C@@H](NC(=O)Nc1ccccc1CCc1cc(C(C)(C)C)c(O)c(C(C)(C)C)c1)c1ccccc1 [Example 69, (S)-N-[2-(3,5-di-tert-butyl-4-hydroxyphenethyl)phenyl]-N'-(α-ethoxycarbonyl)benzylurea] | 95 | 96
CC(C)(C)c1cc(CCc2ccccc2NC(=O)NC2CCCC2)cc(C(C)(C)C)c1O [Example 16, N-[2-(3,5-di-tert-butyl-4-hydroxyphenethyl)phenyl]-N'-cyclopentylurea] | 95 | 93
CN1CC2CC(NC(=O)Nc3ccccc3CCc3cc(C(C)(C)C)c(O)c(C(C)(C)C)c3)CC(C1)N2C (centres unmarked) [Example 39, N-[2-(3,5-di-tert-butyl-4-hydroxyphenethyl)phenyl]-N'-(3,9-dimethyl-3,9-diazabicyclo[3.3.1]-7-nonyl)urea] | 87 | 88
CC(C)(C)CC(C)(C)NC(=O)Nc1ccccc1CCc1cc(C(C)(C)C)c(O)c(C(C)(C)C)c1 [Example 14, N-[2-(3,5-di-tert-butyl-4-hydroxyphenethyl)phenyl]-N'-(2,4,4-trimethyl-2-pentyl)urea] | 98 | 93
CN(C)c1ccc(CCNC(=O)Nc2ccccc2CCc2cc(C(C)(C)C)c(O)c(C(C)(C)C)c2)cc1 [Example 75, N-[2-(3,5-di-tert-butyl-4-hydroxyphenethyl)phenyl]-N'-(4-dimethylaminophenethyl)urea] | 95 | 88
CC(C)(C)c1cc(CCc2ccccc2NC(=O)NC2CCCCCC2)cc(C(C)(C)C)c1O [Example 4, N-[2-(3,5-di-tert-butyl-4-hydroxyphenethyl)phenyl]-N'-cycloheptylurea] | 98 | 95
CC(C)(C)c1cc(CCc2ccccc2NC(=O)NCC(C)(C)c2ccc(Cl)c(Cl)c2)cc(C(C)(C)C)c1O [Example 77, N-[2-(3,5-di-tert-butyl-4-hydroxyphenethyl)phenyl]-N'-[2-(3,4-dichlorophenyl)-2-methylpropyl]urea] | 95 | 96
CC(C)(C)c1cc(CCc2ccccc2NC(=O)NC2CCN(Cc3ccc(C(F)(F)F)cc3C(F)(F)F)CC2)cc(C(C)(C)C)c1O [Example 85, N-[2-(3,5-di-tert-butyl-4-hydroxyphenethyl)phenyl]-N'-[1[-2,4-bis(trifluoromethyl)benzyl]-4-piperidyl]urea] | 94 | 97
CN(Cc1c2ccccc2cc2ccccc12)C(=O)Nc1ccccc1CCc1cc(C(C)(C)C)c(O)c(C(C)(C)C)c1 [Example 44, N-[2-(3,5-di-tert-butyl-4-hydroxyphenethyl)phenyl]-N'-(9-anthryl)methyl-N'-methylurea] | 94 | 90
CCCCCCCNC(=O)Nc1ccccc1CCc1cc(C(C)(C)C)c(O)c(C(C)(C)C)c1 [Example 12, N-[2-(3,5-di-tert-butyl-4-hydroxyphenethyl)phenyl]-N'-heptylurea] | 94 | 91
CC(C)(C)c1cc(CCc2ccccc2NC(=O)NCCc2ccccc2)cc(C(C)(C)C)c1O [Example 5, N-[2-(3,5-di-tert-butyl-4-hydroxyphenethyl)phenyl]-N'-phenethylurea] | 100 | 89
CC(C)=CCCC(C)=CCNC(=O)Nc1ccccc1CCc1cc(C(C)(C)C)c(O)c(C(C)(C)C)c1 [Example 13, N-[2-(3,5-di-tert-butyl-4-hydroxyphenethyl)phenyl]-N'-(3,7-dimethyl-2,6-octadienyl)urea] | 92 | 90
CC(C)(C)c1cc(CCc2ccccc2NC(=O)N2CCN(c3ccccc3)CC2)cc(C(C)(C)C)c1O [Example 124, 1-[N-[2-(3,5-di-tert-butyl-4-hydroxyphenethyl)phenyl]carbamoyl]-4-phenylpiperazine] | 95 | 81
CC(C)(C)c1cc(CCc2ccccc2NC(=O)N2CCC(Cc3ccccc3)CC2)cc(C(C)(C)C)c1O [Example 115, 4-Benzyl-1-[N-[2-(3,5-di-tert-butyl-4-hydroxyphenethyl)phenyl]carbamoyl]piperidine] | 98 | 87
CCOCCCNC(=O)Nc1ccccc1CCc1cc(C(C)(C)C)c(O)c(C(C)(C)C)c1 [Example 15, N-[2-(3,5-di-tert-butyl-4-hydroxyphenethyl)phenyl]-N'-(3-ethoxypropyl)urea] | 99 | 76
